# Experiments:
# wt-KRAS NSCLC cell lines = assay: Screening against NSCLC cell line panel, wt-KRAS lines; format: cell-based; details: Table 6, mean of 3 wt-KRAS lines; read-out: NSCL cell line cytotoxicity IC50 wt-KRAS
# Description: The isogenic KRAS lines harboring G12D, G12C, and G12V were obtained from Horizon Discovery labs on a one year lease. These cells were cultured in McCoys media with 10% FBS to 80% confluency. Cells were then released from flasks via trypsinization and plated into 96-well plates at an initial density range of 2000 cells per well. Cells were allowed 24 hours to attach, and then the agents were added to the culture media at a range of concentrations from 0-100 μM. Cells were incubated for 72 hours with the drugs, and then viability was assessed using an MTS viability assay. Cells were exposed to MTS reagent (Promega) dissolved in PBS (Hyclone) at a concentration of 200 μL reagent/mL media for 2 hours. Absorbance was then read at 490 nm, and viability was expressed as a percentage normalized between the negative control (no cells plated) and the condition of cells with no drug added (100% viability) normalized as the upper limit of viability.
# Our panel of 30 cell lines and an extensive characterization were obtained from Dr. John Minna (UTSW). All cell lines were cultured in RPMI 1640 with 10% FBS. Cells were treated with concentrations of agents at concentrations 0.01 to 50 μM and evaluated as described above. IC50's were determined using Excelfit.
# AKT1 PH-domain = molecular target: T1, AKT1 PH-domain (Homo sapiens, UniProt P31749); assay: SPR binding assay (Biacore T100), AKT1 PH-domain; details: Table 6; read-out: AKT KD
# T1 construct: The PH-domain His-fusion proteins (CNK1 and AKT1) were expressed and immobilized on a NTA chip; made in house
# Method in brief: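 His-tagged AKT1 PH domain immobilized on NTA chip to ≤10,000 RU, Biacore T100. Small-molecule analytes injected at 50 μM to 0.010 μM, 30 μL/min, with 1-5% (v/v) DMSO in samples and running buffer.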
# PH-domain of CNKSR1 = molecular target: T2, PH-domain of CNKSR1 (Homo sapiens, UniProt Q969H4); assay: SPR binding (Biacore 2000) to CNKSR1 PH-domain, initial hits; details: Table 5
# T2 sequence (Q969H4 403-502 limits assumed): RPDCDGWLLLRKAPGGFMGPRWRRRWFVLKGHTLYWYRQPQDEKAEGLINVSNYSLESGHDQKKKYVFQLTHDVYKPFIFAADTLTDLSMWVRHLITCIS
# Description: In embodiments, a homology model for the PH-domain of CNSKR1 based on known PH-domain crystal structures can be developed. The docking program PHuDock® can be used to identify potential inhibitors of CNKSR1. […] The binding of the compounds to the expressed PH-domain of CNKSR1 (KDobs) can be measured by surface plasmon resonance (SPR) spectroscopy.
# Other docking was performed using modeling algorithms with state-of-the-art commercial drug discovery software (Schrodinger suite). […] Additionally, ligand-based approaches provided an alternative to structure based drug discovery. Ligand-based virtual screening methodologies can take into account shape and electrostatics (like ROCS) and the pharmacophoric features (acceptor, donor, hydrophobic, aromatic, etc.) of its functional groups. […] SPR interaction analyses of all other compounds was undertaken using a Biacore T100 with Control and Evaluation software kit.
# T1 sequence (P31749 5-108 limits assumed): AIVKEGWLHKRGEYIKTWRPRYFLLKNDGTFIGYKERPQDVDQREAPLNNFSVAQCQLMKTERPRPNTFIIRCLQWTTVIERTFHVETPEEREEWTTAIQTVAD
smiles,measurement,setting,value
CCOC(=O)Cc1nn(Cc2nc(-c3ccc(C)cc3)cs2)c(=O)c2ccccc12 [Compound 7],IC50,wt-KRAS NSCLC cell lines,> 100 µM
same,Kd,AKT1 PH-domain,17.3 µM
same,Kd,PH-domain of CNKSR1,1.8 ± 0.6 µM

# Source: patent US9340532B2, “Methods and compositions for inhibiting CNKSR1” (PHUSIS THERAPEUTICS, INC., priority 2012, dated 2016)
